In one assay the test system is COX-1 and COX-2. The settings on record: cited from earlier work.
In the next assay the target is T1, COX-1 (Ovis aries, UniProt P05979).
T1 sequence (P05979 25-600): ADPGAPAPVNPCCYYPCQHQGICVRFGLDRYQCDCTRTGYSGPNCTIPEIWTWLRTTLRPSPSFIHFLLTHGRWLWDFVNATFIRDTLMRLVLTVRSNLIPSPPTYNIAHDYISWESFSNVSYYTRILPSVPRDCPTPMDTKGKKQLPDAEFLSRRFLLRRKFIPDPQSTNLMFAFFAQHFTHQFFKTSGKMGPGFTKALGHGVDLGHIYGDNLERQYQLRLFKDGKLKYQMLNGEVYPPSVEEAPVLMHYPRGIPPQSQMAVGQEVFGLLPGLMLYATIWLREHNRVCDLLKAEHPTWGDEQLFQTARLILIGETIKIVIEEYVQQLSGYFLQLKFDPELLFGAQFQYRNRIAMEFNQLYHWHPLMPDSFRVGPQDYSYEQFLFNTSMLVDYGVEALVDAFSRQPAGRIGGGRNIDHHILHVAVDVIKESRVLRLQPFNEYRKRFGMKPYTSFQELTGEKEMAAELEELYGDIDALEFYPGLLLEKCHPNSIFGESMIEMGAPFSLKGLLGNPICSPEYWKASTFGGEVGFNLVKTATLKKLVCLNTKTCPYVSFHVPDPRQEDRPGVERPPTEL
The assay is described as follows: Fluorometric COX-1 inhibitor screening kit. Format: biochemical. Further details: purchased Abcam ab204698. To be noted: mean ± standard error, three independent measurements. How it is done:
The inhibitory activity of the tested compounds against COX-1 and COX-2 isoforms was assessed using fluorometric cyclooxygenase inhibitor screening kits (Catalog Numbers ab204698 and ab283401, respectively; Abcam, Cambridge, UK). These assays detect the formation of prostaglandin G2, a product of COX enzymatic activity, via fluorometric measurement.
Stock solutions of the test compounds were prepared at a concentration of 5 mM in DMSO and subsequently diluted with the same solvent to obtain the test solutions. For the assay preparation, 2 μL of each test solution was diluted with 8 μL of COX assay buffer. The solvent control (SC) consisted of 2 μL of DMSO and 8 μL of assay buffer, while the enzyme control (EC) contained 10 μL of assay buffer alone. Sample wells (S) received 10 μL of the diluted test solutions. All other steps were in accordance with the manufacturer’s protocol and the previously published article. […] The percentage of inhibition was calculated as follows:(3) % Relative Inhibition=Slope of EC−Slope of S/Slope of EC×100
Fluorescence measurements were conducted on a BioTek Synergy LX multi-mode reader (Winooski, VT, USA).

The subject of assay [1] is local oxidative stress parameters. The assay is described as follows: Local redox state (edema-affected paw tissue homogenate) 24 h after carrageenan. Format: in vivo, Wistar albino rats. To be noted: inflamed paw tissue. How it is done:
(§1) Following 24 h of carrageenan-induced paw edema inflammation model and intraperitoneal anesthesia induced by ketamine/xylazine (100/10 mg/kg of BW), the animals were sacrificed, while whole-blood samples and edema-affected paw tissues were isolated. After centrifugation of whole blood, plasma and erythrocyte lysate samples were separated for further examination of the applied compounds’ effects on the systemic redox balance state. Pro-oxidative markers including superoxide anion radical (O2∙^−), hydrogen peroxide (H2O2) nitrites (NO2^−), and index of lipid peroxidation measured as thiobarbituric acid (TBA) reactive substances (TBARS) were determined from plasma samples, while the antioxidant capacity, including superoxide dismutase (SOD) and catalase (CAT) activity, as well as the reduced glutathione (GSH) level were examined in erythrocyte lysate samples [46]. […] Edema-affected paw tissue samples were weighed (100 mg) and homogenized (OmniPrep™ multi-sample homogenizer, Omni International, Kennesaw, GA, USA) in 900 µL phosphate buffer on ice (pH = 7.4), and centrifuged at 12,000 rpm for 20 min. These supernatant samples were used for the determination of the aforementioned pro-oxidative and antioxidative parameters levels. All oxidative stress analyses were performed spectrophotometrically using a Shimadzu UV 1800 spectrophotometer (Kyoto, Japan).
(§2) Determination of the O2∙^− level was conducted by adding 950 µL of a Nitro Blue Tetrazolium (NBT) mixture with TRIS buffer in 50 µL of sample, measured at the 550 nm wavelength. The level of H2O2 was determined during the oxidation of phenol red by H2O2, which was catalyzed with horseradish peroxidase and measured at the 610 nm wavelength. Indirect measurement of nitrites was performed by the precipitation of samples with 30% sulfo-salicylic acid, followed by vortexing and centrifugation at 3000 rpm for 15 min. The equal volumes of isolated supernatant and Griess’ reagent (containing 1% sulfanilamide in 5% phosphoric acid/0.1% naphthalene ethylenediamine-dihydrochloride) were incubated for 10 min and measured at the 550 nm wavelength. The TBARS concentration was determined by adding 400 µL of sample to 200 µL of TBA in 0.05 M NaOH, followed by 15 min incubation at 100 °C. Measurement was performed at the 530 nm wavelength.
(§3) The epinephrine method was used for SOD determination. By adding 100 µL of sample, the same volume of epinephrine, and 1000 µL of carbonate buffer, the measurement was performed at the 470 nm wavelength. The determination of CAT activity was based on the preparation of a mixture containing 100 µL of sample, 50 µL of catalase buffer, and 1000 µL of 10 mM H2O2, which was measured at the 230 nm wavelength.

For assay [2], the system named is systemic oxidative stress parameters. The assay is described as follows: Systemic redox state (plasma, erythrocyte lysate) 24 h after carrageenan. It counts as in vivo, Wistar albino rats. As to the method: as §1, §2, §3

Consider `C[C@@H](C(=O)O)c1cccc(C(=O)c2ccccc2)c1` [(R)-ketoprofen], for which the “Times lower COX inhibitory capacity than dexketoprofen” value with COX-1 and COX-2 was 100 to 1000 times.

As for `C[C@H](C(=O)O)c1cccc(C(=O)c2ccccc2)c1` [Dexketoprofen, reference compound], the IC50 at COX-1 was determined as 1.5 ± 0.6 nM. Besides, in assay [1], the “Local O2∙− concentration compared to untreated rats” value is on record as “significantly decreased” and the “Local SOD activity compared to untreated (negative control) rats” value was “remarkably improved”. In assay [1] (comparator not given), the “Local nitrites level (reduction, p < 0.05)” value is “markedly reduced”. For the same compound, in assay [2] (erythrocyte lysate), the “Systemic CAT activity compared to Sol (untreated) rats” value is “significantly reduced activity of SOD and CAT, as well as the GSH level, in untreated rats compared to Dex”; the “Systemic GSH level compared to untreated rats” value is “significantly reduced activity of SOD and CAT, as well as the GSH level, in untreated rats compared to Dex”; the “Systemic SOD activity compared to Sol (untreated) rats” value was “significantly reduced activity of SOD and CAT, as well as the GSH level, in untreated rats compared to Dex”. In addition, in assay [2] (plasma), the “Systemic H2O2 level compared to solvent rats” value is reported as “significantly lower”, the “Systemic O2∙− level compared to untreated (Sol) rats” value is listed as “significantly lower” and the “Systemic TBARS level compared to Sol (untreated) rats” value is on record as “significantly decreased”.

Values taken from paper PMC12291762 (Antioxidants, 2025).
